Our source for the Km values is PMC10946451, “Engineering a Carboxyl Methyltransferase for the Formation of a Furan‐Based Bioplastic Precursor” (Chemsuschem, 2023).

The target of this test is T1, FtpM (WT FtpM) (Aspergillus fumigatus, UniProt Q4WZ45).
T1 construct: gene AFUA_3G15280; codon-optimised gene in pET-based golden gate vector, C-terminal His tag, expressed in E. coli, HisTrap purified; monomer and dimer modelled by AlphaFold 2
T1 sequence (Q4WZ45 1-282): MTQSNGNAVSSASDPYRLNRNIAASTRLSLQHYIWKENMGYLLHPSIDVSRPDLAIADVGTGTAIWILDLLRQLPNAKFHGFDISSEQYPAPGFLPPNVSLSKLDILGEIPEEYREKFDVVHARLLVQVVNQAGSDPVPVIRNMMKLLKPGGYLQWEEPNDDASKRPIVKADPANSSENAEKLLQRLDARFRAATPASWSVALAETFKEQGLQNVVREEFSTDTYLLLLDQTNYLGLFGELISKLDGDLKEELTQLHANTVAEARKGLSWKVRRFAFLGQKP
The test can be described thus: steady-state kinetics of carboxyl methylation (Michaelis-Menten; previously reported method). Type of test: biochemical. Conditions: co-substrate SAM, kinetic assay conditions not printed (reactions: 50 mM MES pH 6.0, 25 °C).

For the compound `COC(=O)c1ccc(C(=O)O)o1` [compound 3, FMME], under “second methylation”, the Km worked out at 1400 µM.

Regarding `O=C(O)c1ccc(C(=O)O)o1` [compound 2, 2,5-furandicarboxylic acid], for the setting “first methylation”, the Michaelis constant (Km) was 520 µM.
